Measured values from patent publication US10004739B2, “Methods for treating cancer by inhibiting FGFR3/TACC3 fusion protein” (Astellas Pharma Inc., priority 2012, dated 2018).
Read-outs that look alike come from different tables or passages of the source.

Tests used:
[1] = system: FGFR3-TACC3_v3 expression/NIH3T3 cells; assay: Anchorage-independent cell proliferation, spheroid plate, CellTiter-Glo; settings: Mus musculus, NIH3T3, 96 h, read-out: growth inhibition rate (%), v3
Method: (§4) The FGFR3-TACC3_v1 expression/NIH3T3 cells were seeded in a 96-well spheroid plate (Sumilon Cell-Tight Spheroid 96U; SUMITOMO BAKELITE CO., LTD.) with D-MEM containing 10% fetal bovine serum, such that the cell count in each well became 1×10^3. Moreover, as a positive control, a well added only with the medium was prepared. […] As a negative control, DMSO as a vehicle of the compound was added thereto at the same concentration (0.1%) as set at the time of adding the compound. Thereafter, the cells were cultured for 4 days at 37° C. in the presence of 5% CO2, and a reagent for cell count measurement (CellTiter-Glo™ Luminescent Cell Viability Assay; Promega Corporation) was added thereto. The resultant was stirred for 20 minutes, and the cell count was measured using a luminometer.
(§5) Moreover, the respective compounds were added such that the final concentration thereof became 100 nM, 10 nM, and 1 nM.

[2] = system: cells expressing FGFR3-TACC3 fusion gene; settings: reported in Science 2012; 337:1231-5; cited from earlier work
[3] = system: FGFR3-TACC3_v2 expression/NIH3T3 cells; assay: Anchorage-independent cell proliferation, spheroid plate, CellTiter-Glo; settings: Mus musculus, NIH3T3, 96 h, read-out: growth inhibition rate (%), v2
Method: as §4, §5

RT-112 cells = assay: Anchorage-independent proliferation of RT-112 bladder cancer cell line, spheroid plate, CellTiter-Glo; assay type: cell-based; settings: Homo sapiens
Method: Moreover, as a positive control, a well added only with the medium was prepared. […] As a negative control, DMSO as a vehicle of the compound was added thereto at the same concentration (0.1%) at the time of adding the compound. Thereafter, the cells were cultured for 5 days at 37° C. in the presence of 5% CO2, and a reagent for cell count measurement (CellTiter-Glo™ Luminescent Cell Viability Assay; Promega Corporation) was added thereto. The resultant was stirred for 20 minutes, and the cell count was measured using a luminometer.
as §5

[4] = system: FGFR3-TACC3_v1 expression/NIH3T3 cells; assay: Anchorage-independent cell proliferation, spheroid plate, CellTiter-Glo; settings: Mus musculus, NIH3T3, 96 h, read-out: growth inhibition rate (%), v1
Method: as §4, §5

[5] = system: FGFR3-TACC3_v1 (N-FLAG) fusion polypeptide; assay: In vitro kinase activity of FGFR3-TACC3_v1 (N-FLAG) fusion polypeptide (HTRF KinEASE-TK, peptide substrate); assay type: biochemical, human; settings: ATP 100 μM
[6] = molecular target: T1, FGFR3-TACC3 fusion polypeptide v1 (Homo sapiens, UniProt P22607); assay: Kinase inhibition in tumor: phosphorylated FGFR3/total FGFR3 by ELISA; assay type: in vivo, nude mice; settings: 4 hours after the final administration; dosing as Example 13
T1 construct: expressed in transfected cells; host or cells: NIH3T3 cells infected with FGFR3-TACC3_v1/pMXs-puro retrovirus, inoculated into nude mice
Method: (§1) For the test, 5 mice were assigned to each of the vehicle group and the compound group, and 4 hours after the final administration, tumors were extracted by dissection. Thereafter, by using a lysis solution (Cell Lysis Buffer; Cell Signaling Technology, Inc., Phosphatase Inhibitor Cocktail; Thermo Fisher Scientific Inc., Complete; Roche, Ltd.), protein extracts of the tumors were rapidly prepared, and the total FGFR3 level and a phosphorylated FGFR3 level of the tumors were measured using an ELISA kit (R&D Systems). ELISA was performed according to the attached procedure manual, but detection was performed in a different way in which the chemiluminescence detection is conducted using a chemiluminescent reagent (BM chemiluminescence ELISA substrate; Roche, Ltd.) and a luminometer (ARVO; PerkinElmer Inc.).
(§2) A level obtained by correcting the phosphorylated FGFR3 level by using the total FGFR3 level (phosphorylated FGFR3 level/total FGFR3 level) was taken as a phosphorylation level.

FGFR3-TACC3_v3 = molecular target: T2, FGFR3-TACC3_v3 (Homo sapiens, UniProt P22607); assay: as above; assay type: in vivo, nude mice; settings: 4 hours after the final administration; dosing as Example 13
T2 construct: in order to express a full length of ORF of FGFR3-TACC3_v3 as a protein; expressed in transfected cells; host or cells: NIH3T3 cells infected with FGFR3-TACC3_v3/pMXs-puro retrovirus, inoculated into nude mice
Method: as §1, §2

FGFR3-TACC3_v2 = molecular target: T3, FGFR3-TACC3_v2 (Homo sapiens, UniProt P22607, F384L); assay: as above; assay type: in vivo, nude mice; settings: 4 hours after the final administration; dosing as Example 13
T3 construct: in order to express a full length of ORF of FGFR3-TACC3_v2 as a protein; expressed in transfected cells; host or cells: NIH3T3 cells infected with FGFR3-TACC3_v2/pMXs-puro retrovirus, inoculated into nude mice
Method: as §1, §2

[7] = system: FGFR3-TACC3_v3 (N-FLAG) fusion polypeptide; assay: In vitro kinase activity of FGFR3-TACC3_v3 (N-FLAG) fusion polypeptide (HTRF KinEASE-TK, peptide substrate); assay type: biochemical, human; settings: ATP 100 μM
[8] = system: FGFR3-TACC3_v2 (N-FLAG) fusion polypeptide; assay: In vitro kinase activity of FGFR3-TACC3_v2 (N-FLAG) fusion polypeptide (HTRF KinEASE-TK, peptide substrate); assay type: biochemical, human; settings: ATP 100 μM
[9] = system: FGFR3-TACC3_v1 expression/NIH3T3 cells (tumors); assay: Anti-tumorigenic activity in nude mice bearing subcutaneous tumors; assay type: in vivo; settings: 30 mg/kg orally once a day for 11 days
Excerpt: (§3) Cg-Foxn1Nu/Crlcrlj (Nu/Nu) nude mice (Charles River Laboratories, Japan) by means of subcutaneous injection performed in the back of the mice. Three days after the inoculation, AZD4547 and BGJ398 which are FGFR3-TACC3 fusion polypeptide inhibitors were started to be administered. For the test, 4 to 5 mice were assigned to each of the vehicle group and the compound group, AZD4547 and BGJ398 were suspended in a vehicle composed of 0.5% methyl cellulose (Shin-Etsu Chemical Co., Ltd.)/99.5% distilled water, and each of the compounds was orally administered at a dosage of 30 mg/kg. The administration was performed once a day for 11 days, and the body weight of mice and a tumor diameter were measured every 2 or 3 days. A tumor volume was calculated using the following formula. [Tumor volume (mm^3)]=[major axis of tumor (mm)]×[minor axis of tumor (mm)]^2×0.5

[10] = system: FGFR3-TACC3_v2 expression/NIH3T3 cells (tumors); assay: as above; assay type: in vivo; settings: 30 mg/kg orally once a day for 11 days
Excerpt: as §3

[11] = system: FGFR3-TACC3_v3 expression/NIH3T3 cells (tumors); assay: as above; assay type: in vivo; settings: 30 mg/kg orally once a day for 11 days
Excerpt: as §3

[12] = system: cell line intrinsically expressing an EML4-ALK fusion gene; settings: Clin. Cancer Res. 2008; 4275-4283; cited from earlier work
[13] = RT-112, 120 h, final concentration 100 nM, Example 16: 2×10^3 cells per well, 5 days, read-out: growth inhibition rate (%), RT-112
[14] = RT-112, read-out: growth inhibition rate (%), RT-112
[15] = RT-112, final concentration 1 nM, Example 30: 1×10^3 cells per well, RPMI1640 with 2 mM L-glutamine, otherwise as Example 9, read-out: growth inhibition rate (%), RT-112
[16] = RT-112, final concentration 10 nM, Example 30: 1×10^3 cells per well, RPMI1640 with 2 mM L-glutamine, otherwise as Example 9, read-out: growth inhibition rate (%), RT-112
[17] = RT-112, final concentration 100 nM, Example 30: 1×10^3 cells per well, RPMI1640 with 2 mM L-glutamine, otherwise as Example 9, read-out: growth inhibition rate (%), RT-112

| Structure (SMILES) | inhibition at 0.1 µM [1] [%] | inhibition at 0.1 µM [3] [%] | inhibition at 0.1 µM [4] [%] | Inhibition against peptide substrate FGFR3-TACC3 v1 ([5]; final concentration 1 nM) [%] | Inhibition against peptide substrate FGFR3-TACC3 v1 ([5]; final concentration 10 nM) [%] | Inhibition against peptide substrate FGFR3-TACC3 v1 ([5]; final concentration 100 nM) [%] | Inhibition against peptide substrate FGFR3-TACC3 v3 ([7]; final concentration 1 nM) [%] | Inhibition against peptide substrate FGFR3-TACC3 v3 ([7]; final concentration 10 nM) [%] | Inhibition against peptide substrate FGFR3-TACC3 v3 ([7]; final concentration 100 nM) [%] | Inhibition against peptide substrate FGFR3-TACC3 v2 ([8]; final concentration 1 nM) [%] | Inhibition against peptide substrate FGFR3-TACC3 v2 ([8]; final concentration 10 nM) [%] | Inhibition against peptide substrate FGFR3-TACC3 v2 ([8]; final concentration 100 nM) [%] | inhibition at 0.001 µM [1] [%] | inhibition at 0.01 µM [1] [%] | inhibition at 0.001 µM [3] [%] | inhibition at 0.001 µM (RT-112 cells; [15]) [%] | inhibition at 0.01 µM (RT-112 cells; [16]) [%] | inhibition at 0.001 µM [4] [%] | inhibition at 0.01 µM [4] [%] | inhibition at 0.01 µM [3] [%] | also measured |
| --- | --- | --- | --- | --- | --- | --- | --- | --- | --- | --- | --- | --- | --- | --- | --- | --- | --- | --- | --- | --- | --- |
| COc1cc(CCc2cc(NC(=O)c3ccc(N4C[C@@H](C)N[C@@H](C)C4)cc3)[nH]n2)cc(OC)c1 [AZD4547, N-{5-[2-(3,5-dimethoxyphenyl)ethyl]-2H-pyrazol-3-yl}-4-[(3R,5S)-3,5-dimethylpiperazin-1-yl]benzamide] | 51 | 60 | 74 | 13 | 46 | 69 | 9 | 52 | 74 | 16 | 50 | 77 |  |  |  |  |  |  |  |  | proliferation of cells expressing FGFR3-TACC3 fusion gene [2]: inhibited the proliferation; inhibition at 0.1 µM (RT-112 cells; [13]): 90%; reduction of tyrosine auto-phosphorylation in the tumor compared to the vehicle group [6]: 58%; reduction of tyrosine auto-phosphorylation in the tumor compared to the vehicle group (FGFR3-TACC3_v3): 78%; reduction of tyrosine auto-phosphorylation in the tumor compared to the vehicle group (FGFR3-TACC3_v2): 54%; inhibition of proliferation of tumors (tumor volume) [9]: 51%; inhibition of proliferation of tumors (tumor volume) [10]: 61%; inhibition of growth of tumors (tumor volume) [11]: 73% |
| COc1cc(Nc2ncc(OCc3c(F)c(OC)cc(OC)c3F)cn2)ccc1N1CCC(N2CCN(C)CC2)CC1 [Compound A, 5-[(2,6-difluoro-3,5-dimethoxybenzyl)oxy]-N-{3-methoxy-4-[4-(4-methylpiperazin-1-yl)piperidin-1-yl]phenyl}pyrimidin-2-amine] |  |  |  |  |  |  |  |  |  |  |  |  |  |  |  |  |  |  |  |  | inhibition at 0.001 µM (RT-112 cells; [14]): 29%; inhibition at 0.01 µM (RT-112 cells; [14]): 83%; inhibition at 0.1 µM (RT-112 cells; [14]): 90% |
| COc1cc(OC)c(F)c(COc2cnc(Nc3cnn(C[C@@H](O)CO)c3)nc2)c1F [Compound C, (2R)-3-[4-({5-[(2,6-difluoro-3,5-dimethoxybenzyl)oxy]pyrimidin-2-yl}amino)-1H-pyrazol-1-yl]propane-1,2-diol] |  |  |  |  | 79 | 95 | 41 |  | 96 | 22 | 73 | 95 | 3 | 24 | 0 | 21 | 72 | 5 | 44 |  |  |
| COc1cc(OC)c(F)c(COc2cnc(Nc3ccc(N4CCN(C)CC4)cc3)nc2)c1F [Compound D, 5-[(2,6-difluoro-3,5-dimethoxybenzyl)oxy]-N-[4-(4-methylpiperazin-1-yl)phenyl]pyrimidin-2-amine] | 89 | 88 | 90 | 34 | 80 | 94 | 45 | 85 | 97 | 27 | 80 | 95 | 25 | 79 | 23 | 23 | 80 | 26 | 84 | 79 | inhibition at 0.1 µM (RT-112 cells; [17]): 89% |
| COc1cc(OC)c(F)c(COc2cnc(Nc3cc(CN4CCN(C)CC4)n(C)n3)nc2)c1F [Compound E, 5-[(2,6-difluoro-3,5-dimethoxybenzyl)oxy]-N-{1-methyl-5-[(4-methylpiperazin-1-yl)methyl]-1H-pyrazol-3-yl}pyrimidin-2-amine] | 81 | 79 | 84 | 7 | 40 | 86 | 30 | 55 | 91 | 6 | 25 | 78 | 6 | 20 | 11 | 5 | 33 | 7 | 28 | 29 | inhibition at 0.1 µM (RT-112 cells; [17]): 81% |
| CN1CCN(c2ccc3nc(-c4c(N)c5c(F)cccc5[nH]c4=O)[nH]c3c2)CC1 [Dovitinib, 4-amino-5-fluoro-3-[6-(4-methylpiperazin-1-yl)-1H-benzo[d]imidazol-2-yl]quinoline-2(1H)-one, reference compound] |  |  |  |  |  |  |  |  |  |  |  |  |  |  |  |  |  |  |  |  | inhibition at 0.1 µM (RT-112 cells; [13]): 80% |
| C[C@@H](Oc1ccc2[nH]nc(/C=C/c3cnn(CCO)c3)c2c1)c1c(Cl)cncc1Cl [LY2874455, (R)-(E)-2-{4-[2-{5-[1-(3,5-dichloropyridin-4-yl)ethoxy]-1H-indazol-3-yl}vinyl]-1H-pyrazol-1-yl}ethanol, reference compound] |  |  |  | 46 | 77 |  | 57 | 83 |  | 64 | 87 |  |  | 89 |  |  |  |  | 88 | 90 | Inhibition against peptide substrate FGFR3-TACC3 v1 ([5]; final concentration 0.1 nM): 12%; Inhibition against peptide substrate FGFR3-TACC3 v3 ([7]; final concentration 0.1 nM): 3%; Inhibition against peptide substrate FGFR3-TACC3 v2 ([8]; final concentration 0.1 nM): 15% |
| CCN(CC)CCCCNc1ncc2cc(-c3cc(OC)cc(OC)c3)c(NC(=O)NC(C)(C)C)nc2n1 [PD173074] |  |  |  |  |  |  |  |  |  |  |  |  |  |  |  |  |  |  |  |  | proliferation of cells expressing FGFR3-TACC3 fusion gene [2]: inhibited the proliferation |
| COc1cc(N2CCC(N3CCN(C)CC3)CC2)ccc1Nc1ncc(Cl)c(Nc2ccccc2S(=O)(=O)C(C)C)n1 [TAE684] |  |  |  |  |  |  |  |  |  |  |  |  |  |  |  |  |  |  |  |  | growth of the cell [12]: growth of the cell is inhibited; phosphorylation of ALK [12]: phosphorylation is inhibited |
